Assay results: article PMC9137037 (Frontiers in Oncology, 2022)
Where no end group is shown, it is not given here.

Assays:
BALB/c mice [1] = test: ELISA antibody titers in sera of immunized BALB/c mice; type: in vivo; conditions: mouse; Figure 1C
Description: The peptide vaccine MVF-PD-1(92-110) was dissolved in sterile water and mixed with either ISA 720 or ISA 51 (1:1) ratio. We utilized the well-established murine colon carcinoma cell line CT26 tumor model in syngeneic BALB/c mice to evaluate the effects of vaccination previously described ([23]). Briefly, 6–8-week-old female BALB/c mice were immunized with the peptide vaccine, and 2 weeks after the third immunization, the mice were challenged with 1×10^5 CT26 colon cancer cells by subcutaneous injection (SC). The CT26 cancer cell line was maintained in the DMEM medium with 10% FBS 5% CO2 at 37 °C. […] Tumor growth was monitored daily, especially 7 days after the tumor challenge. […]
Enzyme-linked immunosorbent assay (ELISA) was performed per our lab standard procedure. […] After washing, the antibody was detected using 50 μl of 0.15% H2O2 in 24 mM of citric acid and 5 mM of the sodium phosphate buffer (pH5.2) with 0.5 mg/ml 2, […] (3-ethylbenzthiazole- 6-sulfonic acid, ABTS; Sigma, St. Louis, MO, USA) as the chromophore. […] Absorbance was read at 415 nm using an ELISA microplate reader (SPECTRAmax PLUS384; Molecular Devices, San Jose, CA, USA). The highest dilution at the cutoff absorbance 0.2 were determined as the antibody titer. […]

BALB/c mice [2] = test: Observation for autoimmune symptoms in immunized mice; type: in vivo, mouse
Excerpt: The common autoimmune symptoms are identified as follows: skin rashes, low-grade fever, achy muscles, fatigue, hair loss, trouble concentrating, and so on. […] For the dogs, the high volume of ISA 720 caused a lesion near the injection site that might result in mild swelling, but the symptoms were resolved weeks after. The immunized monkeys had some swelling at or near the site of IM injection, especially after the second or third dose and more frequent in females than males. In all the clinical observations, these animals either had recovered or were in the process of recovering. Despite these adverse clinical findings, all of them were active and in good condition throughout the project. Overall, there were no observable signs or uncontrolled autoimmune symptoms.

Q: What does the source list for “KLLSLIKGVIVHRLEGVEGPSLGAISLAPKAQIKESLRAEL [MVF-PD-1(92-110)]”?
A: immunogenicity (summary) (BALB/c mice [1]): High immunogenicity ( Figure 1C );; induction of autoimmune responses (BALB/c mice [2]): has not been observed
